Measurements reported in ChEMBL document CHEMBL4419175, “Compositions for treatment, diagnosis and prognosis of diseases” (2016).
Activity calls are given as the source filed them. The calls are words filed in the database; no cut-off is given here.

How the values were obtained:
[1] = tested on: LNCaP; assay: Inhibition of PIP5K1alpha protein expression in human LNCAP cells assessed as reduction in AKT phosphorylation at Ser473 residues at 20 uM incubated for 48 hrs by immunoblot analysis relative to control; format: functional
[2] = tested on: PC-3; assay: Inhibition of PIP5K1alpha protein expression in human PC3 cells assessed as reduction in AKT phosphorylation at Ser473 residues at 50 uM incubated for 48 hrs by immunoblot analysis relative to control; format: functional, cell-based
[3] = tested on: LNCaP; assay: Effect on CREB phosphorylation in human LNCAP cells at 20 uM incubated for 48 hrs by immunoblot analysis; format: functional, cell-based
[4] = tested on: PC-3; assay: Antitumor activity against human PC3 cells xenografted in mouse assessed as reduction in volume at 10 mg/kg dosed every second day starting from day 0 and ending on day 20 relative to control; format: functional, organism-based
[5] = tested on: PC-3; assay: Induction of morphological changes in human PC3 cells assessed as changes in morphology at 100 nM incubated for 48 hrs by live cell imaging system based assay; format: functional
[6] = tested on: LNCaP; assay: Inhibition of PIP5K1alpha protein expression in human LNCAP cells assessed as reduction in AKT phosphorylation at Ser473 residues at 50 nM incubated for 48 hrs by immunoblot analysis relative to control; format: functional, cell-based
[7] = tested on: PC-3; assay: Inhibition of PIP5K1alpha protein expression in human PC3 cells assessed as reduction in FAK phosphorylation incubated for 48 hrs by immunoblot analysis relative to control; format: functional, cell-based
[8] = tested on: PC-3; assay: Induction of morphological changes in human PC3 cells assessed as reduction in cell size at 100 nM incubated for 48 hrs by live cell imaging system based assay; format: functional
[9] = tested on: PC-3; assay: Induction of apoptosis in human PC3 cells assessed as necrotic cells at 100 nM incubated for 48 hrs by Annexin-/7-AAD staining based FACS analysis (reference value: 0.32%); format: functional
[10] = tested on: LNCaP; assay: Inhibition of PSA protein expression in human LNCAP cells at 50 nM incubated for 48 hrs by immunoblot analysis; format: functional, cell-based
[11] = tested on: PC-3; assay: Inhibition of PIP5K1alpha protein expression in human PC3 cells assessed as reduction in AKT phosphorylation at Ser473 residues at 100 nM incubated for 48 hrs by immunoblot analysis relative to control; format: functional, cell-based
[12] = tested on: LNCaP; assay: Effect on CREB phosphorylation in human LNCAP cells at 50 nM incubated for 48 hrs by immunoblot analysis; format: functional, cell-based
[13] = tested on: PC-3; assay: Induction of apoptosis in human PC3 cells assessed as late apoptotic cells at 100 nM incubated for 48 hrs by Annexin-/7-AAD staining based FACS analysis (reference value: 2.83%); format: functional
[14] = Toxicity in mouse xenografted with human PC3 cells at 10 mg/kg dosed every second day starting from day 0 and ending on day 20 relative to control; format: organism-based; conditions: in vivo
[15] = tested on: PC-3; assay: Induction of apoptosis in human PC3 cells assessed as early apoptotic cells at 100 nM incubated for 48 hrs by Annexin-/7-AAD staining based FACS analysis (reference value: 2.53%); format: functional
[16] = tested on: PC-3; assay: Inhibition of PIP5K1alpha protein expression in human PC3 cells at 50 nM incubated for 48 hrs by immunoblot analysis; format: functional, cell-based
[17] = tested on: PC-3; assay: Induction of apoptosis in human PC3 cells assessed as viable cells at 100 nM incubated for 48 hrs by Annexin-/7-AAD staining based FACS analysis (reference value: 94.31%); format: functional; conditions: PC-3, 48 h, read-out: Activity
[18] = tested on: LNCaP; assay: Inhibition of AR protein expression in human LNCAP cells at 50 nM incubated for 48 hrs by immunoblot analysis; format: functional, cell-based

For `CN1CC(=O)N2[C@H](c3ccc4c(c3)OCO4)c3[nH]c4ccccc4c3C[C@@H]2C1=O`, the inhibition [1] was “inactive”, the inhibition [2] was “inactive” and the Activity [3] was “inactive”.

With `CC(=O)O[C@@]12CO[C@@H]1C[C@H](O)[C@@]1(C)C(=O)[C@H](O)C3=C(C)[C@@H](OC(=O)[C@H](O)[C@@H](NC(=O)OC(C)(C)C)c4ccccc4)C[C@@](O)([C@@H](OC(=O)c4ccccc4)[C@H]21)C3(C)C` [DOCETAXEL ANHYDROUS] the Activity [4] was “Active”, the Activity [5] was “Active” and the inhibition [6] was “inactive”. For the same compound, the inhibition [7] was “inactive”, the Activity [8] was “Active” and the Activity [9] was 1.15%. The inhibition [10] was “inactive”, the inhibition [11] was “inactive” and the Activity [12] was “inactive”. The Activity [13] was 6.36%, the Activity [14] was “Toxic” and the Activity [15] was 2.73%. For the same compound, the inhibition [16] was “inactive”, the viability at 0.1 µM [17] was 89.8% and the inhibition [18] was “inactive”.
